According to patent USRE47689E1, “Compounds for treating spinal muscular atrophy” (PTC Therapeutics, Inc., priority 2011, dated 2019):
Like-named read-outs stand apart in the source and are kept apart here.

Key:
[1] = system: SMN2 minigene (full length SMN2 minigene mRNA containing SMN2 exon 7); experiment: SMN2 minigene mRNA splicing RT-qPCR assay in cultured cells; type: cell-based, human; conditions: Homo sapiens, HEK293-H, read-out: EC1.5x for production of full length SMN2 mRNA
Method in brief: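 Lysates → one-step RT-qPCR, minigene-specific primers (0.4 μM final) + GAPDH multiplex, 40 cycles. FL/GAPDH vs DMSO; EC1.5x, star-binned.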

[2] = system: Smn protein; experiment: Smn protein assay in cultured cells (SMN HTRF); type: cell-based, human; conditions: 48 hours; for maximum fold (Fold) increase of Smn protein: SMA patient fibroblast cells, 7-point concentration data, fold increase relative to vehicle control (SMN HTRF); for EC1.5x (concentration giving 1.5-fold Smn protein increase): SMA Type 1 patient fibroblast cells (GM03813), 7-point concentration curve, SMN HTRF, concentration producing 1.5 times Smn protein vs DMSO vehicle control, read-out: EC1.5x for Smn protein expression
Method in brief: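 Smn in SMA fibroblast lysates, measured by anti-SMN HTRF after 48 h compound exposure; EC1.5x from fold change over vehicle.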

[3] = HEK293H cells stably transfected with SMN2-A minigene, 24 hours, 7-point concentration curve, 1.5-fold relative to vehicle-treated cells

Compound	EC (1.5-fold) ([1]; 24 h)	maximum fold (Fold) increase of Smn protein [2]	melting point	EC (1.5-fold) [1, 3]	EC1.5x (concentration giving 1.5-fold Smn protein increase) [2]
O=c1oc2cc(N3CCN4CCC3CC4)ccc2cc1-c1cn2cccnc2n1 [Compound 440, 7-(1,4-diazabicyclo[3.2.2]non-4-yl)-3-(imidazo[1,2-a]pyrimidin-2-yl)-2H-chromen-2-one]	1 to 3 µM	* (maximum fold increase of ≤1.2)	> 300 °C	–	–
Cc1nn2cc(-c3cc4ccc(N5CCN(C)CC5)cc4oc3=O)nc2s1 [Compound 442, 3-(2-methylimidazo[2,1-b][1,3,4]thiadiazol-6-yl)-7-(4-methylpiperazin-1-yl)-2H-chromen-2-one]	–	** (fold increase between >1.2 and ≤1.35)	233 to 236 °C	3 to 30 µM	–
Cc1nn2cc(-c3cc4ccc(N5C[C@@H](C)N[C@@H](C)C5)cc4oc3=O)nc2s1 [Compound 443, 7-[(3R,5S)-3,5-dimethylpiperazin-1-yl]-3-(2-methylimidazo[2,1-b][1,3,4]thiadiazol-6-yl)-2H-chromen-2-one]	–	**** (fold increase between >1.5 and ≤1.65)	225 to 228 °C	< 0.1 µM	300 to 1000 nM
C[C@H]1CN(c2ccc3cc(-c4ccccn4)c(=O)oc3c2)CCN1 [Compound 444, 7-[(3S)-3-methylpiperazin-1-yl]-3-(pyridin-2-yl)-2H-chromen-2-one]	3 to 30 µM	* (maximum fold increase of ≤1.2)	145 to 147 °C	–	–
COc1ccc(-c2cc3c(F)cc(N4C[C@@H]5C[C@H]4CN5)cc3oc2=O)cc1OC [Compound 446, 7-[(1S,4S)-2,5-diazabicyclo[2.2.1]hept-2-yl]-3-(3,4-dimethoxyphenyl)-5-fluoro-2H-chromen-2-one]	–	* (maximum fold increase of ≤1.2)	239 to 241 °C	3 to 30 µM	–
COc1ccc(-c2cc3ccc(N4CCNCC4)cc3oc2=O)cc1 [Compound 447, 3-(4-methoxyphenyl)-7-(piperazin-1-yl)-2H-chromen-2-one]	–	* (maximum fold increase of ≤1.2)	211 to 213 °C	1 to 3 µM	–
COc1ccc(-c2cc3ccc(N4CCN[C@H](C)C4)cc3oc2=O)cc1 [Compound 448, 3-(4-methoxyphenyl)-7-[(3R)-3-methylpiperazin-1-yl]-2H-chromen-2-one]	–	* (maximum fold increase of ≤1.2)	123 to 126 °C	1 to 3 µM	–
COc1ccc(-c2cc3ccc(N4CCN[C@@H](C)C4)cc3oc2=O)cc1 [Compound 449, 3-(4-methoxyphenyl)-7-[(3S)-3-methylpiperazin-1-yl]-2H-chromen-2-one]	–	* (maximum fold increase of ≤1.2)	123 to 126 °C	1 to 3 µM	–
Cc1nn2cc(-c3cc4ccc(N5CCCNCC5)cc4oc3=O)nc2s1 [Compound 450, 7-(1,4-diazepan-1-yl)-3-(2-methylimidazo[2,1-b][1,3,4]thiadiazol-6-yl)-2H-chromen-2-one]	–	*** (fold increase between >1.35 and ≤1.5)	215 to 218 °C	1 to 3 µM	1000 to 3000 nM
Cc1nn2cc(-c3cc4ccc(N5CCCN(C)CC5)cc4oc3=O)nc2s1 [Compound 451, 7-(4-methyl-1,4-diazepan-1-yl)-3-(2-methylimidazo[2,1-b][1,3,4]thiadiazol-6-yl)-2H-chromen-2-one]	–	*** (fold increase between >1.35 and ≤1.5)	191 to 195 °C	1 to 3 µM	–
Cc1nc(-c2cc3ccc(N4CCCN(C)CC4)cc3oc2=O)cn1-c1ccccn1 [Compound 453, 7-(4-methyl-1,4-diazepan-1-yl)-3-[2-methyl-1-(pyridin-2-yl)-1H-imidazol-4-yl]-2H-chromen-2-one]	–	* (maximum fold increase of ≤1.2)	192 to 196 °C	3 to 30 µM	–
O=c1oc2cc(N3CCCNCC3)ccc2cc1-c1cn2ccncc2n1 [Compound 454, 7-(1,4-diazepan-1-yl)-3-(imidazo[1,2-a]pyrazin-2-yl)-2H-chromen-2-one]	–	*** (fold increase between >1.35 and ≤1.5)	247 to 249 °C	< 0.1 µM	3000 to 10000 nM
CN1CCN(c2ccc3cc(-c4cn5ccncc5n4)c(=O)oc3c2)CC1 [Compound 457, 3-(imidazo[1,2-a]pyrazin-2-yl)-7-(4-methylpiperazin-1-yl)-2H-chromen-2-one]	–	** (fold increase between >1.2 and ≤1.35)	246 to 249 °C	0.1 to 0.3 µM	–
C[C@@H]1CN(c2ccc3cc(-c4cn5cnccc5n4)c(=O)oc3c2)C[C@H](C)N1 [Compound 459, 7-[(3R,5S)-3,5-dimethylpiperazin-1-yl]-3-(imidazo[1,2-c]pyrimidin-2-yl)-2H-chromen-2-one]	–	*** (fold increase between >1.35 and ≤1.5)	250 to 252 °C	< 0.1 µM	3000 to 10000 nM
CN1CCCN(c2ccc3cc(-c4cn5cnccc5n4)c(=O)oc3c2)CC1 [Compound 460, 3-(imidazo[1,2-c]pyrimidin-2-yl)-7-(4-methyl-1,4-diazepan-1-yl)-2H-chromen-2-one]	–	*** (fold increase between >1.35 and ≤1.5)	225 to 227 °C	0.1 to 0.3 µM	3000 to 10000 nM
C[C@@H]1CN(c2ccc3cc(-c4cnc5ccccc5n4)c(=O)oc3c2)C[C@H](C)N1 [Compound 461, 7-[(3R,5S)-3,5-dimethylpiperazin-1-yl]-3-(quinoxalin-2-yl)-2H-chromen-2-one]	–	* (maximum fold increase of ≤1.2)	234 to 236 °C	3 to 30 µM	–
Cc1cnc2nc(-c3cc4ccc(N5CCN[C@@H](C)C5)cc4oc3=O)cn2c1 [Compound 462, 3-(6-methylimidazo[1,2-a]pyrimidin-2-yl)-7-[(3S)-3-methylpiperazin-1-yl]-2H-chromen-2-one]	–	*** (fold increase between >1.35 and ≤1.5)	254 to 256 °C	< 0.1 µM	1000 to 3000 nM
Cc1cnc2nc(-c3cc4ccc(N5CCN[C@H](C)C5)cc4oc3=O)cn2c1 [Compound 463, 3-(6-methylimidazo[1,2-a]pyrimidin-2-yl)-7-[(3R)-3-methylpiperazin-1-yl]-2H-chromen-2-one]	–	* (maximum fold increase of ≤1.2)	258 to 261 °C	0.1 to 0.3 µM	–
COc1ccc(-c2cc3c(F)cc(N4CCN[C@@H](C)C4)cc3oc2=O)cc1OC [Compound 464, 3-(3,4-dimethoxyphenyl)-5-fluoro-7-[(3S)-3-methylpiperazin-1-yl]-2H-chromen-2-one]	–	*** (fold increase between >1.35 and ≤1.5)	118 to 120 °C	0.1 to 0.3 µM	–
COc1ccc(-c2cc3ccc(N4CCNCC4)cc3oc2=O)c(OC)c1 [Compound 465, 3-(2,4-dimethoxyphenyl)-7-(piperazin-1-yl)-2H-chromen-2-one]	–	* (maximum fold increase of ≤1.2)	171 to 173 °C	3 to 30 µM	–
COc1ccc(-c2cc3ccc(N4CCN[C@H](C)C4)cc3oc2=O)c(OC)c1 [Compound 466, 3-(2,4-dimethoxyphenyl)-7-[(3R)-3-methylpiperazin-1-yl]-2H-chromen-2-one]	–	* (maximum fold increase of ≤1.2)	101 to 103 °C	3 to 30 µM	–
COc1ccc(-c2cc3ccc(N4CCN[C@@H](C)C4)cc3oc2=O)c(OC)c1 [Compound 467, 3-(2,4-dimethoxyphenyl)-7-[(3S)-3-methylpiperazin-1-yl]-2H-chromen-2-one]	–	* (maximum fold increase of ≤1.2)	103 to 105 °C	3 to 30 µM	–
COc1cccc(-c2cc3c(F)cc(N4CCNCC4)cc3oc2=O)n1 [Compound 468, 5-fluoro-3-(6-methoxypyridin-2-yl)-7-(piperazin-1-yl)-2H-chromen-2-one]	–	** (fold increase between >1.2 and ≤1.35)	231 to 236 °C	0.3 to 1 µM	–
COc1cccc(-c2cc3c(F)cc(N4CCN[C@@H](C)C4)cc3oc2=O)n1 [Compound 469, 5-fluoro-3-(6-methoxypyridin-2-yl)-7-[(3S)-3-methylpiperazin-1-yl]-2H-chromen-2-one]	–	** (fold increase between >1.2 and ≤1.35)	199 to 201 °C	0.1 to 0.3 µM	–
Cc1ccn2cc(-c3cc4ccc(NCCN(C)C)cc4oc3=O)nc2c1 [Compound 470, 7-{[2-(dimethylamino)ethyl]amino}-3-(7-methylimidazo[1,2-a]pyridin-2-yl)-2H-chromen-2-one]	–	* (maximum fold increase of ≤1.2)	156 to 159 °C	1 to 3 µM	–
